Assay results: patent publication US11427586B2, “1,2,4-oxadiazole derivatives as liver X receptor agonists” (NOVARTIS AG, priority 2019, dated 2022)
Where two headings read alike, the source gives them in different places.

What was measured:
SZ95 sebocytes = assay: Sentinel Lipid Assay (SLA), desaturation index in SZ95 sebocytes; assay type: cell-based; settings: Homo sapiens, 72 h; for EC50: desaturation index, lowest dose used 4.6 nM, read-out: SLA EC50
Summary of the method: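 SZ95 human sebocytes on fibronectin-coated plates, dosed 72 h at 37 °C with 1:3 dilutions from 10 μM; lipids extracted with deuterated triglyceride internal standards and quantified by LC-MS/MS (MRM) as 11 sentinel lipids. Desaturation index from elastic-net coefficients, normalized to DMSO; Amax relative to a reference LXR agonist.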

[1] = test system: naive Sprague Dawley rats; assay: In vivo measurement of lowered meibum melting temperature; parameters: species or system rat; settings: for Change of Tm: meibum melting point versus vehicle, 1% suspension eye drops twice a day for fourteen days, rats; for meibum melting temperature (in words): rat eyes, concentration of 1%; for Mean ± SEM of Compound (meibum melting point): rat meibum, DSC peak temperature, 1% suspension as eye drops twice a day for fourteen days, in °C
Protocol: In Vivo Measurement of Lowered Meibum Melting Temperature
For compounds 8 and 57, the lowering of rat meibum melting temperature was measured in naive Sprague Dawley rats. The test animals were administered either vehicle, or a suspension of 1% of compound 8 or 1% of compound 57, as eye drops twice a day for fourteen days. The rat meibum was collected after administration of the compounds and analyzed by differential scanning calorimetry to measure the melting point. The lowering of meibum melting point in rats administered compound 8 or compound 57 was compared to the vehicle.
Melting properties of meibum were obtained using differential scanning calorimetry thermograms, recorded on a TA Discovery Q5000 (ThermoAnalytical). Samples were sealed in standard 40 μl aluminum pans and subjected to a heat-cool-heat cycle with melting temperatures being recorded on the second heating ramp. The samples were first heated to 150° C. at 30K/min then cooled −30° C. at 30K/min. Next, the sample was heated to 75° C. with an underlying heating rate of 2K/min, a period of modulation of 60 seconds and a temperature amplitude of modulation of 1° C. Dry N2 gas, at a flow rate of 50 mL/min was used to purge the DSC equipment during the measurement. Onset of melting and peak temperatures were recorded with peak temperature quoted as the melting point.
Results from the assay are shown Table 3 and in FIG. 4. Results were analyzed using an unpaired t test with Welch's correction.

SCD1 = assay: Measurement of SCD1 expression in SZ95-SCD1-HiBit cells (HiBiT assay); assay type: cell-based; settings: Homo sapiens, 48 h; for EC50: SCD1 protein production, luminescence, initial dilution 1:3 in DMSO, read-out: HiBit EC50
[2] = normalized Amax based on the reference compound Amax of 100%, read-out: SLA Normalized Amax
[3] = SZ95 cells, compared to reference compound, read-out: SLA Amax
[4] = normalized Amax based on the reference compound Amax of 100%, read-out: HiBit Normalized Amax
[5] = SZ95-SCD1-HiBit cells, compared to reference compound, read-out: HiBit Amax

CC(C)CS(=O)(=O)c1ccccc1Oc1ccc(-c2noc(CN3C(=O)N(CCN4CCOCC4)C4(CCN(C5CCC5)CC4)C3=O)n2)cc1C(F)(F)F [Compound 8, 8-cyclobutyl-3-((3-(4-(2-(isobutylsulfonyl)phenoxy)-3-(trifluoromethyl)phenyl)-1,2,4-oxadiazol-5-yl)methyl)-1-(2-morpholinoethyl)-1,3,8-triazaspiro[4.5]decane-2,4-dione]
Emax (SZ95 sebocytes; [2]): 230%
EC50 (SZ95 sebocytes; SZ95 cells): ≤ 4.6 nM
Emax (SZ95 sebocytes; [3]): 221%
Change of Tm [1]: −1.977 ± 0.3731
meibum melting temperature (in words) [1]: decrease
Mean ± SEM of Compound (meibum melting point) [1]: 28.29 ± 0.2920
Emax (SCD1; [4]): 120%
EC50 (SCD1; SZ95-SCD1-HiBit cells): 0.111 nM
Emax (SCD1; [5]): 114%

CC(C)CS(=O)(=O)c1ccccc1Oc1ccc(-c2noc(CN3C(=O)N(CCN4CCOCC4)C(C)(C)C3=O)n2)cc1C(F)(F)F [Compound 57, 3-((3-(4-(2-(isobutylsulfonyl)phenoxy)-3-(trifluoromethyl)phenyl)-1,2,4-oxadiazol-5-yl)methyl)-5,5-dimethyl-1-(2-morpholinoethyl)imidazolidine-2,4-dione]
Emax (SZ95 sebocytes; [2]): 176%
EC50 (SZ95 sebocytes; SZ95 cells): ≤ 4.6 nM
Emax (SZ95 sebocytes; [3]): 169%
Change of Tm [1]: −2.181 ± 0.3731
meibum melting temperature (in words) [1]: decrease
Mean ± SEM of Compound (meibum melting point) [1]: 28.08 ± 0.2945
Emax (SCD1; [4]): 88.4%
EC50 (SCD1; SZ95-SCD1-HiBit cells): 0.217 nM
Emax (SCD1; [5]): 84.1%

O=C(O)Cc1cccc(OCCCN(Cc2cccc(C(F)(F)F)c2Cl)CC(c2ccccc2)c2ccccc2)c1 [Reference Compound, 2-(3-(3-((2-chloro-3-(trifluoromethyl)benzyl)(2,2-diphenylethyl)amino)propoxy)phenyl)acetic acid, reference compound]
Emax (SZ95 sebocytes; [2]): 100%
EC50 (SZ95 sebocytes; SZ95 cells): 87.3 nM
Emax (SZ95 sebocytes; [3]): 96%
Emax (SCD1; [4]): 100%
EC50 (SCD1; SZ95-SCD1-HiBit cells): 65.4 nM
Emax (SCD1; [5]): 95.1%
